Tests used:
type VII collagen = experiment: Artificial skin culture, immunostaining with anti-type VII collagen antibody; format: cell-based, human; conditions: Example 1; culturing for 2 weeks; 10 μM compound A, 10 μg/ml aprotinin, 1 ng/ml interleukin-1β, 1 ng/ml TGF-α, 100 ng/ml PDGF; versus no-compound control
Description: (§1) Collagen gel was obtained by preparing 10 ml of a human dermal fibroblasts (0.3-1×10^5 cell/ml)-suspended collagen solution (using I-AC collagen manufactured by Koken Co., Ltd.) on ice, followed by gelling the collagen in a 60 mm Petri dish at 37° C. The gel was then peeled from the bottom of the dish, the collagen gel was placed on metal, and a glass ring (12 mm inner diameter) was placed over the gel. A 0.4 ml portion of a human foreskin-derived epidermal keratinocyte (1×10^6/ml) suspension (KGM-DMEM (1:1) mixed medium containing 5% fetal bovine serum) was poured into the glass ring while avoiding leakage. The keratinocytes were allowed to adhere in a CO2 incubator overnight, and the ring was removed on the following day. The medium was filled in up to the border of the epidermal layer, and culturing was continued while exposing the epidermal layer to the air, to prepare a multilayered skin model with epidermis having a horny layer. […]

[1] = tested on: basement membrane structure directly under the epidermis; experiment: Transmission electron microscopy of artificial skin; format: cell-based, human; conditions: Example 1; 10 μM compound A, with or without 10 μg/ml aprotinin
Description: as §1

With COc1ccc(S(=O)(=O)N(Cc2cccnc2)C(C(=O)NO)C(C)C)cc1.Cl (centres unmarked) [compound A] as the molecule, how does the “staining of type VII collagen directly under the basal keratinocytes” value (type VII collagen) read?
Its value is “weak but definite staining”.

And the “basement membrane structure by transmission electron microscope” value [1]?
The value was “induced formation of the basement membrane”.

Source: patent US20050089516A1, “Skin vitalizing composition for external use anti-aging preparation” (SHISEIDO COMPANY, LTD., priority 2002, published 2005)
